From US20260325504A1, “Genetically Engineered Human Pituitary Corticotroph Tumor Organoids Exhibit Divergent Responses to Selective Glucocorticoid Receptor Modulators” (Corcept Therapeutics Incorporated, priority 2022, published 2026)
“Also recorded” adds a separate entry of the source. Where two headings read alike, the source gives them in different places.

Assays:
iPSC^USP48MV organoids [1] = assay: EdU uptake (proliferation) in iPSCUSP48MV organoids; type: cell-based, human; details: compound alone, 500 nM, 48 h
Experimental: iPSCs were stained for pituitary specific hormones including luteinizing hormone (LH), follicle-stimulating hormone (FSH), growth hormone (GH), prolactin (PRL), ACTH, cytokeratin 8/18 (CAM5.2), pituitary transcription factor PIT-1 and neuroendocrine marker Synaptophysin (Table 5). Cultures were immunostained for proliferation marker EdU (Click-IT EdU Alexa Fluor 555 Imaging Kit, Thermo Fisher Scientific C10338). Antibody dilutions were determined based on manufacturer guidelines and antibody titration (Table 5). Staining was conducted according to previously published protocols. Briefly, organoids and iPSCs grown in 8-well glass bottom chamber slides were fixed using 3.7% formaldehyde, washed with DPBS, permeabilized with 0.5% Triton X-100 (SIGMA X-100, PBS-T, 20 min at room temperature), washed with 0.01% PBS-T, and blocked with 2% donkey serum (Jackson Immuno Research 017-000-121) for 1 hour at room temperature. After blocking, primary antibodies were added and incubated overnight at 4° C. Slides were washed with 0.01% PBS-T and incubated with secondary antibodies (Table 5) with Hoechst (Thermo Fisher Scientific H1399) for 1 hour at room temperature. Organoids were washed and stored in PBS at 4° C. until microscopic analysis. High content confocal microscopy was performed using the Nikon Ti2-E Inverted Microscope (with a Crest X-Light V2 L-FOV Spinning Disk Confocal) at the University of Arizona Cancer Center, or a ZEISS LSM880 34 channel Laser Scanning Confocal Microscope at University of Arizona Marley Imaging Core. Fluorescence intensity was quantified as the percentage of marker-positive cells versus total cells, using Nikon Elements Software (Version 5.21.05). Proliferation for each iPSC line was quantified as the percentage of EdU-positive cells versus total cells.
Sonic Hedgehog (SHH) was withdrawn from the organoid growth media 16 hours prior to treatment. The experimental treatment groups included: vehicle (Veh), mifepristone (500 nM, Selleckchem S2606), GANT61 (5 μM, Stemcell Technologies 73692), ketoconazole (Keto, 10 μM, Selleckchem S1353), pasireotide (Pas, 100 nM, Target Mol TP2207-SB001), octreotide (Oct, 100 nM, Selleckchem P1017), mifepristone plus GANT61, mifepristone plus Keto, mifepristone plus Pas, relacorilant (500 nM, Corcept Therapeutics CORT125134), relacorilant plus Pas, relacorilant plus Oct, or dexamethasone (Dexa, 100 nM, SIGMA S4902). In the combination treatments, cultures were pretreated with the GANT61, Keto, Pas or Oct for 2 hours prior to treatment with mifepristone or Rela. […] The IC50 values used for each hPITO line for each drug were determined based on dose responses (FIG. 12). […]

[2] = test system: patients with Cushing's syndrome; details: cited from earlier work; for tumor regression / tumor growth: CD patients, pituitary macroadenomas/corticotroph tumors; for ACTH levels in patients / cortisol levels in patients: patients with Cushing's syndrome/CD
iPSC^ctrl organoids = assay: ACTH secretion ELISA, iPSCctrl organoids; type: cell-based, human; details: 500 nM, 48 h, FIG. 6G
Experimental: (§1) Sonic Hedgehog (SHH) was withdrawn from the organoid growth media 16 hours prior to treatment. The experimental treatment groups included: vehicle (Veh), mifepristone (500 nM, Selleckchem S2606), GANT61 (5 μM, Stemcell Technologies 73692), ketoconazole (Keto, 10 μM, Selleckchem S1353), pasireotide (Pas, 100 nM, Target Mol TP2207-SB001), octreotide (Oct, 100 nM, Selleckchem P1017), mifepristone plus GANT61, mifepristone plus Keto, mifepristone plus Pas, relacorilant (500 nM, Corcept Therapeutics CORT125134), relacorilant plus Pas, relacorilant plus Oct, or dexamethasone (Dexa, 100 nM, SIGMA S4902). In the combination treatments, cultures were pretreated with the GANT61, Keto, Pas or Oct for 2 hours prior to treatment with mifepristone or Rela. PitNET tissue derived organoids hPITO36, hPITO37, hPITO38, hPITO39, and hPITO40 were treated with the following experimental conditions: Vehicle (1), pasireotide (2), relacorilant (3), relacorilant & pasireotide (4), mifepristone (5), mifepristone & pasireotide (6). The IC50 values used for each hPITO line for each drug were determined based on dose responses (FIG. 12). All organoid cultures were treated for 48 hours prior to analysis.
Organoid conditioned media was collected and ACTH secretion using an ELISA according to the manufacturer's protocol (Novus Biologicals Human ACTH ELISA Kit NBP2-66401). The optical density was measured at a wavelength of 450 nm, and ACTH concentration (pg/mL) was interpolated using a standard curve with a 4-parameter logistic regression analysis using GraphPad Prism (v9.3.1).

iPSC^USP48MV organoids [3] = assay: Nuclear morphometric analysis (nuclear irregularity index), iPSCUSP48MV organoids; type: cell-based, human; details: 500 nM, 48 h
Experimental: Nuclear Morphometric Analysis (NMA) using treated organoids was performed based on a published protocol that measures cell viability based on the changes in nuclear morphology of the cells using nuclear stain Hoechst or DAPI [31]. Images of organoid nuclei were analyzed using the ImageJ Nuclear Irregularity Index (NII) plugin for key parameters that included cell area, radius ratio, area box, aspect, and roundness. Using the published spreadsheet template, the NII of each cell was calculated with the following formula: NII=Aspect−Area Box+Radius Ratio+Roundness. The area vs NII of vehicle-treated cells were plotted as a scatter plot using the template and considered as the normal cell nuclei. […] The percentage of cells in each NII classification category were calculated and plotted as a histogram using GraphPad Prism.
Sonic Hedgehog (SHH) was withdrawn from the organoid growth media 16 hours prior to treatment. […] The IC50 values used for each hPITO line for each drug were determined based on dose responses (FIG. 12). […]

[4] = test system: glucocorticoid receptor (GR); details: cited from earlier work
SSTR5 = assay: Spectral flow cytometry, SSTR5 positive cells, iPSCUSP48MV organoids; type: cell-based, human; details: 48 h, FIGS. 8B, F
Experimental: as §1
The multicolor flow cytometry antibody panel was designed using the Cytek® Full Spectrum Viewer online tool to calculate the similarity index. Organoids were harvested in cold Serum-Free Defined Medium media and incubated with Zombie (BioLegend 423107, 1:100) for 15 minutes in the dark at room temperature, followed by incubation with fluorochrome-conjugated/unconjugated primary surface or cytoplasmic antibodies (Table 6) at 4° C. for 30 minutes. Cells were then washed with Cell Staining Buffer (BioLegend 420-201) and incubated at 4° C. for 30 minutes with secondary antibodies (Table 6). Cells were fixed using Cytofix/Cytoperm™ Fixation/Permeabilization Solution (BD Biosciences 554714) and washed with Fixation/Permeabilization wash buffer according to the recommended protocol. […] Data was acquired using the Cytek® Aurora, analyzed using Cytobank Premium software (Beckman Coulter).

estrogen receptor = details: cited from earlier work
androgen receptor = details: cited from earlier work

| Compound | proliferation (EdU uptake) (iPSC^USP48MV organoids [1]) | tumor regression / tumor growth [2] | hyperglycemia secondary to hypercortisolism ([2]; patients with CD) | ACTH levels in patients [2] | cortisol levels in patients [2] | side effects ([2]; patients) | magnitude of ACTH secretion, mifepristone vs relacorilant (iPSC^ctrl organoids) | apoptotic cells by nuclear irregularity index (NII) (iPSC^USP48MV organoids [3]) | binding to the glucocorticoid receptor [4] | binding to the glucocorticoid receptor ([4]; listed as Mifepristone) | percentage of SSTR5 positive cells (SSTR5) | tumor regression ([2]; macroadenomas, treated for three months, imaging of the pituitary gland) | effects of excess cortisol on hypertension and insulin resistance ([2]; phase 2 study, patients with Cushing's syndrome) | binding to the estrogen receptor (estrogen receptor) | binding to the androgen receptor (androgen receptor) | magnitude of SSTR5 induction, relacorilant vs mifepristone (SSTR5) |
| --- | --- | --- | --- | --- | --- | --- | --- | --- | --- | --- | --- | --- | --- | --- | --- | --- |
| CC#C[C@]1(O)CC[C@H]2[C@@H]3CCC4=CC(=O)CCC4=C3[C@@H](c3ccc(N(C)C)cc3)C[C@@]21C [mifepristone, 11β-(4-dimethylaminophenyl)-17ß-hydroxy-17α-(1-propynyl)-estra-4,9-dien-3-one] | significant increase in cell proliferation | not been observed; also recorded: without tumor growth | significantly improves hyperglycemia | increases ACTH; also recorded: raises ACTH (and thus cortisol) levels | concomitant increase in cortisol secretion; also recorded: raises ACTH (and thus cortisol) levels | significant side effects in some patients; also recorded: endometrial thickening and vaginal bleeding | significantly greater than the effect of relacorilant | not observed; also recorded: induces apoptosis in neither the tumor organoid iPSC^USP48MV nor the control organoid iPSC^ctrl | competes with cortisol binding at the GR | typically with high affinity | significant increase | – | – | – | – | – |
| Cn1cc(S(=O)(=O)N2CCC3=Cc4c(cnn4-c4ccc(F)cc4)C[C@]3(C(=O)c3cc(C(F)(F)F)ccn3)C2)cn1 [relacorilant, (R)-(1-(4-fluorophenyl)-6-((1-methyl-1H-pyrazol-4-yl)sulfonyl)-4,4a,5,6,7,8-hexahydro-1H-pyrazolo[3,4-g]isoquinolin-4a-yl) (4-(trifluoromethyl)pyridin-2-yl) methanone] | did not induce organoid proliferation | induce tumor regression in some CD patients | – | did not significantly raise ACTH or cortisol levels | did not significantly raise ACTH or cortisol levels | – | – | significant expression pattern of nuclear morphology consistent with increased apoptotic cells; also recorded: consistent with increased apoptosis cells | – | – | significant increase | tumor regression in two patients | reversed the effects of excess cortisol on hypertension and insulin resistance | no detectable binding | no detectable binding | significantly greater than that of mifepristone |
